{
  "source": "patent US20220364139A1",
  "about": "“METHODS FOR DETERMINING GROWTH AND RESPONSE” (PATAIGIN, LLC, priority 2019, published 2022)",
  "test_system": "P. fluorescens strain that is susceptible to kanamycin",
  "assay": "Growth inhibition of P. fluorescens in 8% D2O, read from deuterated vs undeuterated membrane lipid ions by MALDI mass spectrometry",
  "assay_type": "cell-based, Pseudomonas fluorescens",
  "details": "range of antibiotic concentrations, FIG. 2",
  "experimental": "In FIG. 1 is shown eight MALDI mass spectra from about 680 to 730 m/z in negative ionization mode of membrane lipids extracted from a P. fluorescens strain that is susceptible to kanamycin. The aforementioned P. fluorescens strain was grown in seven environments containing Mueller-Hinton media and water containing 8% D2O, with each of the seven environments also having a concentration of kanamycin from 0 μg/mL to 200 μg/mL.\nExtract samples using the method of embodiment 1b, as follows: skip optional step 2 of embodiment 1b; perform step 3 of embodiment 1b by drying the plate at 80° C. for about 5 min; perform step 4 of embodiment 1b by applying 1 μL of a solution of chloroform-methanol-water at a ratio by volume of 12:6:1, to which 10 mg/mL of beta-carboline has been added.\n3. […]\nIn FIG. 1 can be seen multiple spectra for samples of a P. fluorescens strain that is susceptible to kanamycin, grown under different conditions, then extracted with a method of embodiment 1d and analyzed with a method of embodiment 2 using negative ionization mode. […]\nIn FIG. 2 can be seen a graph of the ratio of heavy/light LA ions from the spectra in FIG. 1, where light LA is measured as the intensity of the ion peak at 688.5 m/z and heavy LA is measured as the intensity of the ion peak at 692.5 m/z.",
  "data": [
    {"molecule": "CC1(C)S[C@@H]2[C@H](NC(=O)C(C(=O)O)c3ccccc3)C(=O)N2[C@H]1C(=O)O", "note": "(stereo partly shown) [carbenicillin]", "values": [
      {"measurement": "relationship between heavy/light ratio and antibiotic concentration", "result": "lowest at the highest antibiotic concentrations"}
    ]}
  ]
}
